{"source": "patent US20250388593A1", "about": "(MITSUBISHI TANABE PHARMA CORPORATION, priority 2023, published 2025)", "data": [{"target": "CRBN truncate (318-426) (Homo sapiens (Human), UniProt Q96SW2)", "sequence (Q96SW2 318-426)": "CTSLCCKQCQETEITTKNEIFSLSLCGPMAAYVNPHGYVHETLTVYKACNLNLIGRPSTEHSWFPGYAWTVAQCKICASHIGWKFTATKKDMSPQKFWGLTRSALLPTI", "assay": "Measurement of molecular interactions using surface plasmon resonance (SPR), Biacore T200", "format": "binding", "details": "25° C., immobilized CRBN truncate, upper limit of measurement 200 μM", "procedure": "The instrument used was the Biacore T200 (manufactured by Cytiva). The CRBN truncate (318-426) was obtained by expressing a construct with an Avi-tag added at the C-terminus. The sensor chip used was Sensor Chip SA (manufactured by Cytiva). The CRBN truncate was immobilized using the affinity between SA (streptavidin) on the sensor chip and the Avi-tag. The running buffer was a mixture of 10 mM HEPES pH 7.5, 150 mM NaCl, 1 mM TCEP, 0.005% Tween 20, and 2% DMSO. […] Contact time and dissociation time were set at 60 seconds and 120 seconds, respectively.", "units": {"Kd": "µM"}, "values": [{"compound": "2-(3-Methyl-5-nitro-2-pyridyl)-2,7-diazaspiro[4.6]undecane-6,8-dione [Example 78]", "Kd": "≥ 100"}, {"compound": "O=C1NC(=O)[C@@]2(c3ccc(Br)cc3)CC[C@@H]1O2", "note": "(racemic) [Example 173, 1-(4-Bromophenyl)-8-oxa-3-azabicyclo [3.2.1]octane-2,4-dione]", "Kd": "≥ 100"}, {"compound": "CN1C(=O)[C@H](N2C=CCC(=O)NC2=O)C[C@H]1c1ccc(/C=C/C(=O)OC(C)(C)C)cc1", "note": "(relative stereo) [Example 290, tert-Butyl (E)-3-[4-[(2S*,4R*)-4-(2,4-dioxo-5H-1,3-diazepin-1-yl)-1-methyl-5-oxopyrrolidin-2-yl]phenyl]prop-2-enoate]", "Kd": "≥ 100"}, {"compound": "Cc1sc2c(c1C)C(c1ccc(Cl)cc1)=N[C@@H](CC(=O)NCCCCCCCCNC(=O)/C=C/c1ccc([C@H]3C[C@H](N4C=CCC(=O)NC4=O)C(=O)N3C)cc1)c1nnc(C)n1-2", "note": "(relative stereo) [Example 349, (E)-N-[8-[[2-[(9S)-7-(4-chlorophenyl)-4,5,13-trimethyl-3-thia-1,8,11,12-tetrazatricyclo[8.3.0.02,6]trideca-2(6),4,7,10,12-pentaen-9-yl]acetyl]amino]octyl]-3-[4-[(2R*,4S*)-4-(2,4-dioxo-5H-1,3-diazepin-1-yl)-1-methyl-5-oxopyrrolidin-2-yl]phenyl]prop-2-enamide]", "Kd": "< 50"}, {"compound": "Cn1c(=O)n([C@@H]2CCCC(=O)NC2=O)c2cccc(I)c21", "note": "(single isomer, unassigned) [Example 211, 3-(4-Iodo-3-methyl-2-oxobenzimidazol-1-yl) azepane-2,7-dione]", "Kd": "50 to 100"}, {"compound": "Cc1sc2c(c1C)C(c1ccc(Cl)cc1)=N[C@@H](CC(=O)NCCCCCCCCCCC(=O)N1CCC(c3ccc(C45CCC(O4)C(=O)NC5=O)cc3)CC1)c1nnc(C)n1-2", "note": "(stereo in doubt) [Example 358, 2-[(9S)-7-(4-chlorophenyl)-4,5,13-trimethyl-3-thia-1,8,11,12-tetraazatricyclo[8.3.0.02,6]trideca-2(6),4,7,10,12-pentaen-9-yl]-N-[11-[4-[4-[(1R*,5R*)-2,4-dioxo-8-oxa-3-azabicyclo[3.2.1]octan-1-yl]phenyl]-1-piperidyl]-11-oxo-undecyl]acetamide]", "Kd": "< 50"}, {"compound": "CC(C)(C)OC(=O)NCc1cn(C2CCCC(=O)NC2=O)nn1", "note": "(stereo not drawn) [Example 1, tert-Butyl N-[[1-(2,7-dioxoazepan-3-yl)triazol-4-yl]methyl]carbamate]", "Kd": "≥ 100"}, {"compound": "CC(C)(C)OC(=O)N1CCC(c2cn(C3CCCC(=O)NC3=O)nn2)CC1", "note": "(stereo not drawn) [Example 2, tert-Butyl 4-[1-(2,7-dioxoazepan-3-yl)triazol-4-yl]piperidine-1-carboxylate]", "Kd": "≥ 100"}, {"compound": "CC(C)(C)OC(=O)Nc1ccc(-c2cn(C3CCCC(=O)NC3=O)nn2)cc1", "note": "(stereo not drawn) [Example 3, tert-Butyl N-[4-[1-(2,7-dioxoazepan-3-yl)triazol-4-yl]phenyl]carbamate]", "Kd": "≥ 100"}, {"compound": "CC(C)(C)OC(=O)Nc1cccc(-c2cn(C3CCCC(=O)NC3=O)nn2)c1", "note": "(stereo not drawn) [Example 5, tert-Butyl N-[3-[1-(2,7-dioxoazepan-3-yl)triazol-4-yl]phenyl]carb amate]", "Kd": "≥ 100"}, {"compound": "CC(C)(C)OC(=O)Nc1ccccc1-c1cn(C2CCCC(=O)NC2=O)nn1", "note": "(stereo not drawn) [Example 6, tert-Butyl N-[2-[1-(2,7-dioxoazepan-3-yl)triazol-4-yl]phenyl]carbamate]", "Kd": "≥ 100"}, {"compound": "CN(C1CCCC(=O)NC1=O)S(=O)(=O)c1ccc(Cl)cc1", "note": "(stereo not drawn) [Example 7, 4-Chloro-N-(2,7-dioxoazepan-3-yl)-N-methylbenzenesulfonamide]", "Kd": "≥ 100"}, {"compound": "O=C1CCCC(NS(=O)(=O)c2ccc(Cl)cc2)C(=O)N1", "note": "(stereo not drawn) [Example 8, 4-Chloro-N-(2,7-dioxoazepan-3-yl) benzenesulfonamide]", "Kd": "≥ 100"}, {"compound": "O=C1CCCC(NS(=O)(=O)c2cccc(Cl)c2)C(=O)N1", "note": "(stereo not drawn) [Example 9, 3-Chloro-N-(2,7-dioxoazepan-3-yl) benzenesulfonamide]", "Kd": "≥ 100"}, {"compound": "CN(C1CCCC(=O)NC1=O)S(=O)(=O)c1cccc(Cl)c1", "note": "(stereo not drawn) [Example 10, 3-Chloro-N-(2,7-dioxoazepan-3-yl)-N-methylbenzenesulfonamide]", "Kd": "≥ 100"}]}]}
